For assay [1], the target named is T1, PDE4B1 (Homo sapiens, UniProt Q07343).
T1 construct: made in house; host or cells: SF21 insect cells (baculovirus; virus made in SF9 cells, pCR-Bac vector)
As to the kind of experiment: Inhibition of PDE4 activity (PDE4B1, SPA assay). Type of assay: biochemical. To be noted: recombinant PDE4B1, 0.5 μM cAMP; read-out: PDE4B1 Inhibitory values measured as -logIC50 (converted). The essentials: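 Read-out is SPA yttrium silicate bead scintillation after IBMX-containing beads stop the reaction. Insect-cell (SF21) lysate enzyme hydrolysed 0.5 μM [3H]cAMP at pH 7.4 with 5 mM Mg2+ for 15 min after a 5 min 37 °C preincubation; IC50 fitted by non-linear regression.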

Assay [2] concerns the target T2, human PDE5 (Homo sapiens, UniProt O76074).
T2 construct: from tissue; host or cells: human platelets from fresh donor blood (platelet lysate)
The assay is described as follows: Inhibition of PDE5 activity (platelet lysate, SPA assay). To be noted: 0.5 μM cGMP, read-out: PDE5 Inhibitory values measured as -logIC50 (converted). Type of assay: biochemical. The essentials:
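SPA readout of [3H]cGMP hydrolysis (0.5 μM, 15 min, 37 °C after 5 min preincubation), stopped with yttrium silicate beads containing IBMX. Enzyme was lysate from human platelets, used at 10–20% substrate turnover, with PDE3 (motapizone 1 μM) and PDE2 (10 nM) blockers present. IC50 values fitted non-linearly from concentration-effect curves.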

SMILES strings stand for the structures.

T1 sequence (Q07343 whole entry): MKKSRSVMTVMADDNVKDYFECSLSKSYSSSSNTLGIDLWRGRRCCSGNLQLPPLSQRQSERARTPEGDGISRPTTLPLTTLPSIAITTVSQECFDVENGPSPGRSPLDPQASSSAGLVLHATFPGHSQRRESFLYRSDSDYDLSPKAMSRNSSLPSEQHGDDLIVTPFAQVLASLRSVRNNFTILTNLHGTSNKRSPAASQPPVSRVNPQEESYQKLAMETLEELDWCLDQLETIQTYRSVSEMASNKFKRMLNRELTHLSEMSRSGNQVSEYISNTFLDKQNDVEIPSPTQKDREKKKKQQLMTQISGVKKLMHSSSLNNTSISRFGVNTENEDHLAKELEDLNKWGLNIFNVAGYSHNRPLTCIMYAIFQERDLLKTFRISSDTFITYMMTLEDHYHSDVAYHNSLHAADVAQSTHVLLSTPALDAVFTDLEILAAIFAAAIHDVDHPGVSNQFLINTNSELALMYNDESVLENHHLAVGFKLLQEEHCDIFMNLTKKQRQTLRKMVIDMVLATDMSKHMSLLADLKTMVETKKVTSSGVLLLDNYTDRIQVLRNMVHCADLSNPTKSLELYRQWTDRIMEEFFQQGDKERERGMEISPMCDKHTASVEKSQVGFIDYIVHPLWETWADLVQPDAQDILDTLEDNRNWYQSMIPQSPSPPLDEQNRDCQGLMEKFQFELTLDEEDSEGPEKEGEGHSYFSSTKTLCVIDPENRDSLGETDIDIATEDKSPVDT

For the compound `COc1ccc(C2=NN(C3CCN(C(=O)C(Cc4c[nH]c5ccccc45)NC(=O)c4c[nH]c5c(-c6c(OCC7CC7)ccc7c6OCO7)ncnc45)CC3)C(=O)C3CCCCC23)cc1OC` [Example 92, 4-[5-(cyclopropylmethoxy)-1,3-benzodioxol-4-yl]-N-[(2S)-1-{4-[(4aS,8aR)-4-(3,4-dimethoxyphenyl)-1-oxo-4^a,5,6,7,8,8^a-hexahydrophthalazin-2(1H)-yl]piperidin-1-yl}-3-(1H-indol-3-yl)-1-oxopropan-2-yl]-5H-pyrrolo[3,2-d]pyrimidine-7-carboxamide], the IC50 in assay [1] and in assay [2] was less than 1 nM in each case.
Consider `COc1ccc(C2=NN(C3CCN(C(=O)[C@@H](Cc4c[nH]c5ccccc45)NC(=O)c4c[nH]c5c(-c6c(OCC7CC7)ccc7c6OCO7)ncnc45)CC3)C(=O)[C@@H]3CCCC[C@H]23)cc1OC` [Example 91, 4-[5-(cyclopropylmethoxy)-1,3-benzodioxol-4-yl]-N-[(2R)-1-{4-[(4aS,8aR)-4-(3,4-dimethoxyphenyl)-1-oxo-4a,5,6,7,8,8a-hexahydrophthalazin-2(1H)-yl]piperidin-1-yl}-3-(1H-indol-3-yl)-1-oxopropan-2-yl]-5H-pyrrolo[3,2-d]pyrimidine-7-carboxamide], for which the IC50 in assay [1] and in assay [2] was less than 1 nM throughout.
With `COc1ccc(C2=NN(C3CCN(C(=O)[C@@H](Cc4ccc(F)c(F)c4)NC(=O)c4c(C)[nH]c5c(-c6c(OCC7CC7)ccc7c6OCO7)ncnc45)CC3)C(=O)[C@@H]3CCCC[C@H]23)cc1OC` [Example 18, 4-[5-(cyclopropylmethoxy)-1,3-benzodioxol-4-yl]-N-[(2R)-3-(3,4-difluorophenyl)-1-{4-[(4aS,8aR)-4-(3,4-dimethoxyphenyl)-1-oxo-4a,5,6,7,8,8a-hexahydrophthalazin-2(1H)-yl]piperidin-1-yl}-1-oxopropan-2-yl]-6-methyl-5H-pyrrolo[3,2-d]pyrimidine-7-carboxamide], the IC50 was less than 1 nM in assay [1] and 1 to 10 nM in assay [2].
Taken in the same sequence, the figures for `COc1ccc(C2=NN(C3CCN(C(=O)[C@@H](Cc4ccc(C(C)(C)C)cc4)NC(=O)c4c(C)[nH]c5c(-c6c(OCC7CC7)ccc7c6OCO7)ncnc45)CC3)C(=O)[C@@H]3CCCC[C@H]23)cc1OC` [Example 46, N-[(2R)-3-(4-tert-butylphenyl)-1-{4-[(4aS,8aR)-4-(3,4-dimethoxyphenyl)-1-oxo-4a,5,6,7,8,8a-hexahydrophthalazin-2(1H)-yl]piperidin-1-yl}-1-oxopropan-2-yl]-4-[5-(cyclopropylmethoxy)-1,3-benzodioxol-4-yl]-6-methyl-5H-pyrrolo[3,2-d]pyrimidine-7-carboxamide] were 1 to 10 nM and 1 to 10 nM.
The matching figures for `COc1ccc(C2=NN(C3CCN(C(=O)[C@@H](Cc4ccc(F)cc4)NC(=O)c4c[nH]c5c(-c6c(OCC7CC7)ccc7c6OCO7)ncnc45)CC3)C(=O)[C@@H]3CCCC[C@H]23)cc1OC` [Example 28, 4-[5-(cyclopropylmethoxy)-1,3-benzodioxol-4-yl]-N-[(2R)-1-{4-[(4aS,8aR)-4-(3,4-dimethoxyphenyl)-1-oxo-4a,5,6,7,8,8a-hexahydrophthalazin-2(1H)-yl]piperidin-1-yl}-3-(4-fluorophenyl)-1-oxopropan-2-yl]-5H-pyrrolo[3,2-d]pyrimidine-7-carboxamide]: less than 1 nM and less than 1 nM.
Taken in the same sequence, the figures for `COc1ccc(C2=NN(C3CCN(C(=O)[C@H](CCC(=O)OCc4ccccc4)NC(=O)c4c[nH]c5c(-c6c(OCC7CC7)ccc7c6OCO7)ncnc45)CC3)C(=O)[C@@H]3CCCC[C@H]23)cc1OC` [Example 104, Benzyl (4S)-4-[({4-[5-(cyclopropylmethoxy)-1,3-benzodioxol-4-yl]-5H-pyrrolo[3,2-d]pyrimidin-7-yl}carbonyl)amino]-5-{4-[(4aS,8aR)-4-(3,4-dimethoxyphenyl)-1-oxo-4a,5,6,7,8,8a-hexahydrophthalazin-2(1H)-yl]piperidin-1-yl}-5-oxopentanoate] were 1 to 10 nM and 1 to 10 nM.
For `COc1ccc(C2=NN(C3CCN(C(=O)[C@H](CCC(=O)N4CCCCC4)NC(=O)c4c(C)[nH]c5c(-c6c(OCC7CC7)ccc7c6OCO7)ncnc45)CC3)C(=O)[C@@H]3CCCC[C@H]23)cc1OC` [Example 83, 4-[5-(cyclopropylmethoxy)-1,3-benzodioxol-4-yl]-N-[(2S)-1-{4-[(4aS,8aR)-4-(3,4-dimethoxyphenyl)-1-oxo-4a,5,6,7,8,8a-hexahydrophthalazin-2(1H)-yl]piperidin-1-yl}-1,5-dioxo-5-(piperidin-1-yl)pentan-2-yl]-6-methyl-5H-pyrrolo[3,2-d]pyrimidine-7-carboxamide], the results for the IC50 in assay [1] and in assay [2] were 1 to 10 nM and less than 1 nM, respectively.
With `COc1ccc(C2=NN(C3CCN(C(=O)[C@@H](Cc4ccccc4)NC(=O)c4c[nH]c5c(-c6c(OCC7CC7)ccc7c6OCO7)ncnc45)CC3)C(=O)[C@@H]3CCCC[C@H]23)cc1OC` [Example 31, 4-[5-(cyclopropylmethoxy)-1,3-benzodioxol-4-yl]-N-[(2R)-1-{4-[(4aS,8aR)-4-(3,4-dimethoxyphenyl)-1-oxo-4a,5,6,7,8,8a-hexahydrophthalazin-2(1H)-yl]piperidin-1-yl}-1-oxo-3-phenylpropan-2-yl]-5H-pyrrolo[3,2-d]pyrimidine-7-carboxamide], the values for the IC50 in assay [1] and in assay [2] were 1 to 10 nM and less than 1 nM, respectively.
As to `COc1ccc(C2=NN(C3CCN(C(=O)[C@@H](Cc4cccc(Cl)c4)NC(=O)c4c[nH]c5c(-c6c(OCC7CC7)ccc7c6OCO7)ncnc45)CC3)C(=O)[C@@H]3CCCC[C@H]23)cc1OC` [Example 30, N-[(2R)-3-(3-chlorophenyl)-1-{4-[(4aS,8aR)-4-(3,4-dimethoxyphenyl)-1-oxo-4a,5,6,7,8,8a-hexahydrophthalazin-2(1H)-yl]piperidin-1-yl}-1-oxopropan-2-yl]-4-[5-(cyclopropylmethoxy)-1,3-benzodioxol-4-yl]-5H-pyrrolo[3,2-d]pyrimidine-7-carboxamide], the IC50 in assay [1] and in assay [2] was 1 to 10 nM throughout.
Take `COc1ccc(C2=NN(C3CCN(C(=O)[C@@H](CCSC)NC(=O)c4c[nH]c5c(-c6c(OCC7CC7)ccc7c6OCO7)ncnc45)CC3)C(=O)[C@@H]3CCCC[C@H]23)cc1OC` [Example 98, 4-[5-(cyclopropylmethoxy)-1,3-benzodioxol-4-yl]-N-[(2R)-1-{4-[(4aS,8aR)-4-(3,4-dimethoxyphenyl)-1-oxo-4a,5,6,7,8,8a-hexahydrophthalazin-2(1H)-yl]piperidin-1-yl}-4-(methylsulfanyl)-1-oxobutan-2-yl]-5H-pyrrolo[3,2-d]pyrimidine-7-carboxamide]: the IC50 in assay [1] and in assay [2] was less than 1 nM each time.
Take `COc1ccc(C2=NN(C3CCN(C(=O)[C@@H](Cc4ccccc4)NC(=O)c4c[nH]c5c(-c6c(OCC7CC7)ccc7c6OCO7)ncnc45)CC3)C(=O)[C@@H]3CCC[C@H]23)cc1OC` [Example 55, 4-[5-(cyclopropylmethoxy)-1,3-benzodioxol-4-yl]-N-[(2R)-1-{4-[(4aS,7aR)-4-(3,4-dimethoxyphenyl)-1-oxo-1,4a,5,6,7,7a-hexahydro-2H-cyclopenta[d]pyridazin-2-yl]piperidin-1-yl}-1-oxo-3-phenylpropan-2-yl]-5H-pyrrolo[3,2-d]pyrimidine-7-carboxamide]: the IC50 in assay [1] and in assay [2] was 1 to 10 nM throughout.
In the case of `COc1ccc(C2=NN(C3CCN(C(=O)CNC(=O)c4c[nH]c5c(-c6c(OCC7CC7)ccc7c6OCO7)ncnc45)CC3)C(=O)C3(CCCC3)C2)cc1OC` [Example 122, 4-[5-(cyclopropylmethoxy)-1,3-benzodioxol-4-yl]-N-(2-{4-[9-(3,4-dimethoxyphenyl)-6-oxo-7,8-diazaspiro[4.5]dec-8-en-7-yl]piperidin-1-yl}-2-oxoethyl)-5H-pyrrolo[3,2-d]pyrimidine-7-carboxamide], the IC50 in assay [1] and in assay [2] was 1 to 10 nM in each case.
Regarding `COc1ccc(C2=NN(C3CCN(C(=O)[C@@H](Cc4cscn4)NC(=O)c4c[nH]c5c(-c6c(OCC7CC7)ccc7c6OCO7)ncnc45)CC3)C(=O)[C@@H]3CCCC[C@H]23)cc1OC` [Example 85, 4-[5-(cyclopropylmethoxy)-1,3-benzodioxol-4-yl]-N-[(2R)-1-{4-[(4aS,8aR)-4-(3,4-dimethoxyphenyl)-1-oxo-4a,5,6,7,8,8a-hexahydrophthalazin-2(1H)-yl]piperidin-1-yl}-1-oxo-3-(1,3-thiazol-4-yl)propan-2-yl]-5H-pyrrolo[3,2-d]pyrimidine-7-carboxamide], the IC50 in assay [1] and in assay [2] was less than 1 nM in each case.
Take `COc1ccc(C2=NN(C3CCN(C(=O)[C@@H](Cc4ccc(C)cc4)NC(=O)c4c[nH]c5c(-c6c(OCC7CC7)ccc7c6OCO7)ncnc45)CC3)C(=O)[C@@H]3CCCC[C@H]23)cc1OC` [Example 21, 4-[5-(cyclopropylmethoxy)-1,3-benzodioxol-4-yl]-N-[(2R)-1-{4-[(4aS,8aR)-4-(3,4-dimethoxyphenyl)-1-oxo-4a,5,6,7,8,8a-hexahydrophthalazin-2(1H)-yl]piperidin-1-yl}-3-(4-methylphenyl)-1-oxopropan-2-yl]-5H-pyrrolo[3,2-d]pyrimidine-7-carboxamide]: the IC50 in assay [1] was 1 to 10 nM; in assay [2], less than 1 nM.

The values are drawn from US20160108049A1 (TAKEDA Gmbh, priority 2011, published 2016).
